Results reported in publication PMC7050258, “Inhibition of MGAT2 modulates fat‐induced gut peptide release and fat intake in normal mice and ameliorates obesity and diabetes in ob/ob mice fed on a high‐fat diet” (FEBS Open Bio, 2020).
Several values for one entry are separate records, joined by “and”; a condition that tells them apart may be missing. Equal entries are not always repeated.

Key:
mouse MGAT2 = mouse MGAT2 (Mus musculus, UniProt Q80W94); experiment: in vitro inhibitory activity against MGAT2 (mouse); assay type: biochemical
Protocol: (§1) CpdB, CpdA, and pioglitazone were synthesized at Takeda Pharmaceutical Co., Ltd. (Tokyo, Japan). The in vitro inhibitory activities of CpdB and CpdA against MGAT2 and related acyltransferases (DGAT1, DGAT2, and ACAT1) were evaluated as described in our previous report 17 and patent application 19. Liraglutide (Victoza) was purchased from Novo Nordisk Pharma Ltd. (Bagsvaerd, Denmark). All other chemicals were of analytical grade and purchased from Wako Pure Chemicals (Osaka, Japan).

DGAT1 human = molecular target: T1, DGAT1 human (Homo sapiens, UniProt O75907); experiment: in vitro inhibitory activity against DGAT1; assay type: biochemical
T1 sequence (O75907 1-488): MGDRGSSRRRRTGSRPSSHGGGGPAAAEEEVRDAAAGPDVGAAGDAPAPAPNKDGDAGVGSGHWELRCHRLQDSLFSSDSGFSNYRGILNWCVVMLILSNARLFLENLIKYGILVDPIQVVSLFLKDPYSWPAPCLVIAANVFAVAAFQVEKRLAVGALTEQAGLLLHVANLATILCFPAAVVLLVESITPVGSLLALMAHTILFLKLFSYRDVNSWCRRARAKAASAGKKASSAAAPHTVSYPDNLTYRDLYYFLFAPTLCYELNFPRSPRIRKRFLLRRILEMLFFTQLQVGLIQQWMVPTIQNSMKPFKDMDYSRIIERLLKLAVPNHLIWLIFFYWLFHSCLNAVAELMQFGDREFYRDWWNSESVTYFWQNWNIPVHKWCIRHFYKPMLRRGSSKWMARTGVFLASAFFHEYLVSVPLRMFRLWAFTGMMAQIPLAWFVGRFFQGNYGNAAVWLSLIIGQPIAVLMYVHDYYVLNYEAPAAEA
Protocol: as §1

ACAT1 human = molecular target: T2, ACAT1 human (Homo sapiens, UniProt P35610); experiment: in vitro inhibitory activity against ACAT1; assay type: biochemical
T2 sequence (P35610 1-550): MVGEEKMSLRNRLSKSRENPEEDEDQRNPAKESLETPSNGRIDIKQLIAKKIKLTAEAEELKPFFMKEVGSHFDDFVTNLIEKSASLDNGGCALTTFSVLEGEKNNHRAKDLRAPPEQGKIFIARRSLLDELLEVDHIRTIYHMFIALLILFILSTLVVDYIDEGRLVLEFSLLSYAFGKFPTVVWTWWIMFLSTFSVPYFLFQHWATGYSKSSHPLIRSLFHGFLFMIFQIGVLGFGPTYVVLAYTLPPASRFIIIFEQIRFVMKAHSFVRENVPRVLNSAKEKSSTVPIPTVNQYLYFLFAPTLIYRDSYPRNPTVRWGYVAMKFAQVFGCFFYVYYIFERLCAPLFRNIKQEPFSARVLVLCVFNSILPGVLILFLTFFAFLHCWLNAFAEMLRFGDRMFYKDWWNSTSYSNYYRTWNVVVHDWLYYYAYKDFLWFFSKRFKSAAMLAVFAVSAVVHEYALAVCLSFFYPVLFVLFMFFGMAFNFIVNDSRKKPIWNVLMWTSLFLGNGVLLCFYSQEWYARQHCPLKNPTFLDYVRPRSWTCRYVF
Protocol: as §1

C57BL/6J mice = experiment: Oral meal tolerance test (MTT), plasma chylomicron TG; assay type: in vivo, mouse; conditions: for Plasma CM/TG AUC (0-4 h), AVE: mean, N=6; for Plasma CM/TG AUC (0-4 h), individual animal: single animal values
Protocol: Overnight‐fasted C57BL/6J mice underwent an MTT in the morning. Vehicle, CpdA (3, 10 mg·kg^−1), or Cpd B (3, 10 mg·kg^−1) was administered by gavage. The compound was suspended in 0.5% methylcellulose. […] Thirty minutes after injection, liquid meal (10 mL·kg^−1) comprising an admixture of corn oil and Ensure‐H (3 : 17 v/v) (Abbott Japan Co., Ltd., Tokyo, Japan) was orally loaded. Blood samples were collected preload (defined as 0 h) and 2 and 4 h after fat load, and plasma TG levels were measured. The area under the curve (AUC) of chylomicron TG (CM/TG), which is synthesized from dietary fat in the small intestine, was calculated by subtracting the plasma TG levels of the meal‐unloaded group from that of the meal‐loaded group.

[1] = Pharmacokinetics of CpdB in mice; assay type: in vivo; conditions: C57BL/6J, mouse, plasma, 30 mg·kg^−1, 30 mg/kg single oral, mice fed an HFD, read-out: average plasma CpdB level 24 h after administration
Protocol: Fifty‐four‐week‐old C57BL/6J mice fed an HFD (45% kcal fat, 4.7 kcal·g^−1; D12451; Research Diets, Inc., New Brunswick, NJ, USA) were given a single oral administration of CpdB (30 mg·kg^−1). Blood samples were collected at 0.25, 0.5, 1, 2, 4, 8, and 24 h after the administration. Concentration of plasma CpdB in each sample was measured using liquid chromatography with tandem mass spectrometry as described in our previous report 18.

Sequence of mouse MGAT2 (Q80W94 whole entry): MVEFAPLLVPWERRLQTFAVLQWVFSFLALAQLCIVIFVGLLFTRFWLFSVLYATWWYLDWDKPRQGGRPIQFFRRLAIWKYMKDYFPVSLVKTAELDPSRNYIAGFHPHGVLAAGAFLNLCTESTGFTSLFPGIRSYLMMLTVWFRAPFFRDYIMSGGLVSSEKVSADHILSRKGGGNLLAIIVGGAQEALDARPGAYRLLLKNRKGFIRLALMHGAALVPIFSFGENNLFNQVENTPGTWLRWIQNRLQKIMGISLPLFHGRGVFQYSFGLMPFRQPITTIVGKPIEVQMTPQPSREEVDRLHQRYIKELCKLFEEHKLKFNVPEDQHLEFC

CC(C)(OC(=O)N[C@H]1CC[C@H](OC(=O)N2CCc3cc(S(=O)(=O)Nc4c(F)cc(Cl)cc4F)cc(N4CCCC4=O)c32)CC1)C(F)(F)F [CpdB]
IC50 (mouse MGAT2): 0.85 nM
IC50 (DGAT1 human): 2500 nM
IC50 (ACAT1 human): > 30000 nM
Plasma CM/TG AUC (0-4 h), AVE (C57BL/6J mice; 3 mg/kg oral at -6.5 h): 3977.6 mg/dLxh
Plasma CM/TG AUC (0-4 h), individual animal (C57BL/6J mice; 3 mg/kg oral at -6.5 h): 3401.5 mg/dLxh and 5885.8 mg/dLxh and 3966.4 mg/dLxh and 3504.4 mg/dLxh and 3174.7 mg/dLxh and 3932.8 mg/dLxh
decrease of plasma CM/TG AUC compared with the vehicle group (C57BL/6J mice; 10 mg/kg oral at -6.5 h): 37%
Plasma CM/TG AUC (0-4 h), AVE (C57BL/6J mice; 10 mg/kg oral at -6.5 h): 4365.7 mg/dLxh
Plasma CM/TG AUC (0-4 h), individual animal (C57BL/6J mice; 10 mg/kg oral at -6.5 h): 5644.3 mg/dLxh and 4575.4 mg/dLxh and 4611.1 mg/dLxh and 3882.4 mg/dLxh and 3535.9 mg/dLxh and 3945.4 mg/dLxh
Plasma CM/TG AUC (0-4 h), individual animal (C57BL/6J mice; 10 mg/kg oral at -16.5 h): 3845.1 mg/dLxh and 6306.3 mg/dLxh and 6722.1 mg/dLxh and 3383.1 mg/dLxh and 3918.6 mg/dLxh and 3231.9 mg/dLxh
Plasma CM/TG AUC (0-4 h), AVE (C57BL/6J mice; 10 mg/kg oral): 4567.8 mg/dLxh
concentration at 24 h [1]: 580 nM
